# Like-named read-outs stand apart in the source and are kept apart here.
# Legend:
# [1] = parameters: method as in PMID 16938349, PMID 21305117; conditions: bulk drug, spectrophotometric; cited from earlier work
# [2] = ICP-MS analysis of 69Ga in tissues after oral bulk dose; type: in vivo, mice; conditions: bulk (group D), 4 h
# Procedure: Oral [^68/67Ga]KP46: The protocol for oral administration experiments reported here was devised on the basis of pilot experiments described in Supplementary Materials (Figure S12). For short-term (up to 4 h) studies with ^68Ga, awake (nonanaesthetised, to avoid suppressive effects of anaesthesia on digestive tract activity) mice that had been fasted for up to 14 h were given [^68Ga]KP46 (5–13 MBq) (group C, “tracer”, n = 3) or [^68Ga]KP46 and KP46 (5–8.5 MBq) (group D, “bulk”, n = 3) by oral gavage. The dose given orally to group D animals, prepared as described above, was 0.4 μmol in 400 μL, molar activity ca. 25 MBq/μmol. […] After separation of layers, a sample of 400 µL from each layer was transferred to fresh Eppendorf tubes and analysed with a gamma counter. Stomach content (72–77 mg), small intestine content (35–88 mg), and large intestine content (86–100 mg) samples from each mouse were analysed similarly by adding them directly to Eppendorf tubes containing a pre-equilibrated mixture of octanol (500 µL) and water (500 µL) before vortexing and centrifuging at 10,000 rpm for 10 min at 4 °C. From each layer, 430 µL was transferred to fresh Eppendorf tubes and analysed with a gamma counter; the solid residues were also counted. […]
# expressed as mean ± SD (n = 3). […]
# [3] = parameters: method as in PMID 8687115; conditions: healthy mice, 2 weeks daily oral doses; cited from earlier work
# [4] = Distribution/partition coefficients (logD, logP), shake flask with gamma counting; type: physicochemical; conditions: octanol/water, tracer level, mean ± SD
# Procedure: Tracer-level [^68Ga]KP46 and [^68Ga]Ga-acetate solutions (5–20 µL, 0.3–0.5 MBq) were added to a pre-equilibrated mixture (500 µL/500 µL) of octanol/water (for logP measurement) or octanol/PBS (for logD7.4 measurement). Samples were vortexed for two minutes in a Multi Vortex Mixer V-32 (Grant Bio). From each layer, a sample of 200 µL was taken and its radioactivity measured using a gamma counter.
# [5] = Octanol extraction of serum, urine and gut contents after oral radiolabelled KP46 (speciation); type: in vivo, mice; conditions: oral, tracer level (group E), 24 h
# Procedure: Serum and urine from the “tracer level” group (E) were subjected to octanol extraction 24 h postadministration to determine the fraction of ^67Ga that may have survived in the form of [^67Ga]KP46 after absorption from the gut.
# Oral [^68/67Ga]KP46: The protocol for oral administration experiments reported here was devised on the basis of pilot experiments described in Supplementary Materials (Figure S12). For short-term (up to 4 h) studies with ^68Ga, awake (nonanaesthetised, to avoid suppressive effects of anaesthesia on digestive tract activity) mice that had been fasted for up to 14 h were given [^68Ga]KP46 (5–13 MBq) (group C, “tracer”, n = 3) or [^68Ga]KP46 and KP46 (5–8.5 MBq) (group D, “bulk”, n = 3) by oral gavage. The dose given orally to group D animals, prepared as described above, was 0.4 μmol in 400 μL, molar activity ca. 25 MBq/μmol. The mice were fasted for three hours before being anaesthetised and PET/CT scanned dynamically for one hour (see below for scanning protocol). After scanning, mice in both groups were culled by neck dislocation while still anaesthetised four hours post-oral administration for organ harvesting and gamma counting. Samples of blood, urine and contents of stomach, small intestine and large intestine (the organs/tissue with measurable activity; tumours were not included as they were insufficiently radioactive) from the mice in group C were used for octanol extraction (shake-flask method) to separate water-soluble (released) and lipid-soluble (intact KP46) ^68Ga. Serum samples were prepared by placing blood samples in a serum separator tube (brand VS367954, Fisher Scientific Ltd., Loughborough, UK) and centrifuging at 3000 rpm for 10 min. Serum (200–300 µL) and urine samples (150–180 µL, taken from the excised bladders) were directly added to Eppendorf tubes containing a pre-equilibrated mixture of octanol (500 µL) and water (500 µL). The tubes were vortexed for two minutes on a Multi Vortex Mixer V-32 (Grant Bio). After separation of layers, a sample of 400 µL from each layer was transferred to fresh Eppendorf tubes and analysed with a gamma counter. Stomach content (72–77 mg), small intestine content (35–88 mg), and large intestine content (86–100 mg) samples from each mouse were analysed similarly by adding them directly to Eppendorf tubes containing a pre-equilibrated mixture of octanol (500 µL) and water (500 µL) before vortexing and centrifuging at 10,000 rpm for 10 min at 4 °C. From each layer, 430 µL was transferred to fresh Eppendorf tubes and analysed with a gamma counter; the solid residues were also counted. Tissues from mice in group D were used after radioactive decay for measurements of nonradioactive ^69Ga content.
# [6] = biological target: T1, human apo-transferrin (apo-Tf) (Homo sapiens, UniProt P02787); assay: Binding to apo-transferrin by size exclusion chromatography (PD MidiTrap G-25); type: in vitro ADME; conditions: incubated with apo-Tf in the presence of bicarbonate, sampled over 48 h
# T1 construct: purchased Sigma Aldrich
# Procedure: Solutions of human apo-transferrin (apo-Tf, 2 mg/mL) and human serum albumin (HSA, 50 mg/mL) (both purchased from Sigma Aldrich) were dissolved in aqueous NaHCO3 (5 mM, pH = 8) and PBS (pH = 7.4), respectively. An amount of 1 MBq of tracer-level [^68Ga]KP46 (13–20 µL) or [^68Ga]gallium acetate (20–25 µL) was added to 1.2 mL of the apo-Tf solution and to a similar apo-Tf-free NaHCO3 solution (control). Similarly, [^68Ga]KP46 and [^68Ga]gallium acetate solutions were added to 1.5 mL PBS containing HSA or HSA-free PBS (control). The samples were incubated for 60 min at 37 °C (pH = 7–7.5). From each mixture, 0.5 mL was loaded into PD MidiTrap G-25 size exclusion chromatography cartridges that were preconditioned with 8 mL of NaHCO3 (5 mM) (for apo-Tf binding) or PBS (for HSA binding). Fractions (0.5 mL) were collected and counted with a Wallac gamma counter. Protein absorbance at 280 nm was measured using a Nanodrop spectrophotometer. To investigate the speciation of the Ga–KP46 complex in the presence of apo-Tf at later time points (up to 48 h), the experiment was repeated with ^67Ga.
# [7] = SPECT imaging and ex vivo biodistribution 24 h and 48 h after oral [67Ga]KP46, tracer (group E) and bulk (group F); type: in vivo, mice; conditions: n = 4
# Procedure: The tracer-level samples for oral administration were prepared in the same manner but with 20 μL of KP46-free DMSO in place of the KP46 solution in DMSO.
# All animal experiments were performed in accordance with the Animals (Scientific Procedures) Act, 1986, with protocols approved by the Animal Welfare and Ethical Review Body for King’s College London under project and personal licences approved by the UK Home Office. Tumour xenograft studies were performed on female NSG mice or female athymic nude mice after injecting them subcutaneously in the right shoulder with 2.5 × 10^6 A375 cells in 100 µL of PBS. All in vivo studies were conducted between 14 and 24 days after inoculation, with tumour volumes between 100 mm^3 and 580 mm^3 (see Supplementary Materials, Figure S11).
# For long-term (up to 48 h) studies, a similar protocol was followed, but SPECT imaging using ^67Ga was repeated at intervals up to 48 h instead of PET imaging up to only 4 h postadministration. Athymic nude nu/nu mice bearing A375 xenografts were fasted for 7–14 h and divided in two groups: E (n = 4) and F (n = 4). Awake (nonanaesthetised) mice were orally administered with [^67Ga]KP46 (2–11 MBq, “tracer”, group E) or with [^67Ga]KP46 and KP46 (1–11 MBq, “bulk”, group F, given 0.4 μmol KP46 with molar activity ca. 15 MBq/μmol) and fasted for three hours. Mice in both groups were then anaesthetised and SPECT/CT scanned (see scanning protocol below) for one hour. Mice were then allowed to recover and feed. At 24 h postadministration, mice were reanaesthetised and rescanned, then group E mice were culled while still anaesthetised, and tissues were harvested for ex vivo gamma counting.
# PET/CT images were acquired with a nanoScan® PET/CT (Mediso Medical Imaging Systems, Budapest, Hungary) scanner operating in list mode using a 400–600 keV energy window and a coincidence window of 1:3. CT scans were acquired for anatomical reference and attenuation correction (55 keV X-ray, exposure time 1000 ms, and 360 projections and pitch 1). PET projection data were reconstructed using the Tera-tomo® software package provided with the scanner —a Monte Carlo-based fully 3D iterative algorithm with four iterations, six subsets, and 0.4 mm isotropic voxel size; corrections for attenuation, scatter, and dead-time were enabled. The data were then visualised and quantified using VivoQuant^© v.2.50 (InviCro, Boston, MA, USA) software. SPECT/CT imaging was performed on a NanoSPECT/CT Silver Upgrade scanner (Mediso; 4 heads, 4 × 9 1.0 mm multipinhole collimators) in helical scanning mode using energy windows centred around 93.20 ± 20% keV (primary), 184.60 ± 20% keV (secondary), and 300.00 ± 20% keV (tertiary). […] Images were coregistered and analysed using VivoQuant v2.50 (InviCro, Needham, MA, USA).
# [8] = single oral administration with bulk gallium chloride (100 nmol), after five days; cited from earlier work
# T1 sequence (P02787 20-698): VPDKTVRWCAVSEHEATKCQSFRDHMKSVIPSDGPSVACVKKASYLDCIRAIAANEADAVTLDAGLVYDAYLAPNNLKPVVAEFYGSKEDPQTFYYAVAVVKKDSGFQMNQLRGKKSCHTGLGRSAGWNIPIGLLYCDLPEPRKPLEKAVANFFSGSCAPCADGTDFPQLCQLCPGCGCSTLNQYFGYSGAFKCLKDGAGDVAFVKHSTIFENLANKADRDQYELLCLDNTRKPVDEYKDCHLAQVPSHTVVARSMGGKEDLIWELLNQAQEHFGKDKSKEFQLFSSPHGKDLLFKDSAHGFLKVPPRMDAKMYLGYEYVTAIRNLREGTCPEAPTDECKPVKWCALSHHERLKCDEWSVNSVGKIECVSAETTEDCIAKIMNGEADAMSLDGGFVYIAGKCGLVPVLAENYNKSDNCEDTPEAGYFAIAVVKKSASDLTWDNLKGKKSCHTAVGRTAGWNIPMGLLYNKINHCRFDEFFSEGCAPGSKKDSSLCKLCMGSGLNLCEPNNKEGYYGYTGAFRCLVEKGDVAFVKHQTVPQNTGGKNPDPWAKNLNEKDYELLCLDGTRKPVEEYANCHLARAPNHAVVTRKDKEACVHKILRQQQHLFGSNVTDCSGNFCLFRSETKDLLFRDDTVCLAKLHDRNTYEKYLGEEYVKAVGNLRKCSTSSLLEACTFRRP
smiles,measurement,setting,value
"[Ga+3].[O-]c1cccc2cccnc12.[O-]c1cccc2cccnc12.[O-]c1cccc2cccnc12 [KP46, tris(8-quinolinolato)gallium (III)]",logP(octanol/water),[1],0.88
same,69Ga delivered to tumour by ICP-MS,[2],0.17 ± 0.1 %ID/g
same,69Ga in large intestine by ICP-MS,[2],23.7 ± 9.2 %ID/g
same,accumulation of gallium in liver,[3],0.08 ± 0.04 %ID/g
same,logP(octanol/water),[4],2.33 ± 0.28
[67Ga+3].[O-]c1cccc2cccnc12.[O-]c1cccc2cccnc12.[O-]c1cccc2cccnc12 [[^67Ga]KP46],serum radioactivity extracted into octanol phase,[5],Less than 6%
same,urine activity extracted into octanol phase,[5],less than 3%
same,binding of 67Ga to apo-Tf,[6],very minor binding
same,"uptake in bone, ex vivo","[7]; bulk level (group F), 48 h",2.55 ± 1.82 %ID/g
same,"uptake in liver, ex vivo","[7]; bulk level (group F), 48 h",1.34 ± 1.01 %ID/g
same,"uptake in tumour, ex vivo","[7]; bulk level (group F), 48 h",1.57 ± 0.48 %ID/g
same,"activity in faeces, ex vivo","[7]; tracer level (group E), 24 h",3.0 ± 2.9 %ID/g
O=C([O-])CC(O)(CC(=O)[O-])C(=O)[O-].[67Ga+3] [[^67Ga]gallium citrate],original measured activity remaining in the mice,[8],0.3 ± 0.08%

# — paper PMC10609081, “In Vivo Trafficking of the Anticancer Drug Tris(8-Quinolinolato) Gallium (III) (KP46) by Gallium-68/67 PET/SPECT Imaging” (Molecules, 2023)
